Experimental findings from publication PMC6269060, “4-(1H-Pyrazol-1-yl) Benzenesulfonamide Derivatives: Identifying New Active Antileishmanial Structures for Use against a Neglected Disease” (Molecules, 2012) are described below.

The test system of data set [1] is Leishmania infantum (L. chagasi syn.) promastigotes. The experiment in a line: In vitro antileishmanial drug assay, L. infantum promastigotes. As to conditions: for S.I (selectivity index: CC50 drug/IC50 drug), Leishmania infantum: CC50 on murine peritoneal cells / IC50 on L. infantum promastigotes; for IC50: Leishmania infantum, promastigotes, 24 h, 26 °C, mean ± S.D. of three determinations. The class given is cell-based, Leishmania infantum (syn. chagasi) MCAN/BR/97/P142 strain. On the procedure: (§1) Parasites in metacyclic phase (4 × 10^6 parasites/mL) were incubated with the derivatives (40–160 mg/mL) solubilized in dimethyl sulphoxide (DMSO, Sigma Chemical Co., St. Louis, MO, USA) at 26 °C for 24 h. The results were expressed as IC50/24 h, the concentration of a compound that caused a 50% reduction in survival/viability compared with non-treated culture. Pentamidine was used as reference drug and all tests were carried out in triplicate. Promastigotes of L. amazonensis (MHOM/BR/77/LTB0016 strain) and L. infantum (syn. chagasi) (MCAN/BR/97/P142 strain) were grown in Schneider’s insect medium (Sigma) at 26 °C in pH 7.2 supplemented with 10–20% (v/v) heat-inactivated fetal calf serum.

Data set [2] has as its system Leishmania amazonensis promastigotes. Kind of data set: In vitro antileishmanial drug assay, L. amazonensis promastigotes. To be noted: for S.I (selectivity index: CC50 drug/IC50 drug), Leishmania amazonensis: CC50 on murine peritoneal cells / IC50 on L. amazonensis promastigotes; for IC50: Leishmania amazonensis, promastigotes, 24 h, 26 °C, mean ± S.D. of three determinations. The class given is cell-based, Leishmania amazonensis MHOM/BR/77/LTB0016 strain. On the procedure:
as §1

Data set [3] in a line: In vitro cytotoxicity (MTT). Format: cell-based, BALB/c mice. As to conditions: BALB/c, mouse, murine peritoneal adherent cells. On the procedure:
The BALB/c mice from Laboratory Animals Nucleus (UFF) were sacrificed to obtain peritoneal cells and for both infection and isolation of Leishmania. The protocol assays was approved by the Institutional Committee of the Center for Biological Evaluation and Care of Research Animals (CEUA-UFF).
BALB/c mice peritoneal cavity cells (4 × 10^5cells/well) were incubated with the derivatives (10, 20, 40 and 80 µg/mL) in 96 wells plate for 24 h in […] RPMI 1640 medium, supplemented with 1 mmol·L^−1L-glutamine, […], penicillin G (10^5 IU·L^−1) and streptomycin sulfate (0.10 g·L^−1) at 37 °C in a humidified 5% CO2 atmosphere. After that, 3-[4,5-dimethylthiazol-2-yl]-2,5-diphenyltetrazolium bromide, MTT (Sigma) was added and the reaction was interrupted with DMSO after 2 h. The results were determined in 540 nm by using a MicroQuant spectrophotometer (Biotek-Instrument Inc., Winooski, VT, USA). All assays were repeated at least four times in quadruplicate. The cytotoxicity profile was expressed as CC50/24 h, the concentration of a compound that caused cytotoxicity compared to non-treated cultures. Index of selectivity (IS) was defined as the ratio of the CC50 value on the macrophage to the IC50 value on the L. amazonensis or L. infantum strains (promastigotes).

The IC50 is the concentration needed to halve the response being measured. Higher therefore signals lower potency. As for `Cc1ccc(S(=O)(=O)Nc2ccc(-n3nc(C)cc3Cl)cc2)cc1` [Compound 3g, N-[4-(5-Chloro-3-methyl-1H-pyrazol-1-yl)phenyl]-4-methylbenzenesulfonamide], in data set [1], the “S.I (selectivity index: CC50 drug/IC50 drug), Leishmania infantum” value is reported as 1.21 and the IC50 is 149 ± 120 µM. In addition, in data set [2], the “S.I (selectivity index: CC50 drug/IC50 drug), Leishmania amazonensis” value is 1.33 and the IC50 worked out at 136 ± 54 µM.

Take `Cc1cc(Cl)n(-c2ccc(NS(=O)(=O)c3ccccc3)cc2)n1` [Compound 3f, N-[4-(5-Chloro-3-methyl-1H-pyrazol-1-yl)phenyl]benzenesulfonamide]: in data set [1], the “S.I (selectivity index: CC50 drug/IC50 drug), Leishmania infantum” value is recorded as 0.76 and the IC50 was found to be 138 ± 110 µM. Also, in data set [2], the “S.I (selectivity index: CC50 drug/IC50 drug), Leishmania amazonensis” value is 0.68 and 153 ± 220 µM corresponded to half-maximal inhibition (IC50).

A word on the CC50: it is the concentration giving 50% cytotoxicity. For `Cc1nn(-c2ccc(S(=O)(=O)Nc3ccc(Cl)cc3)cc2)c(Cl)c1Br` [Compound 3e, 4-(4-Bromo-5-chloro-3-methyl-1H-pyrazol-1-yl)-N-(4-chlorophenyl)benzenesulfonamide], in data set [1], the “S.I (selectivity index: CC50 drug/IC50 drug), Leishmania infantum” value is given as 1.78 and the IC50 came out at 65 ± 40 µM. In addition, in data set [2], the “S.I (selectivity index: CC50 drug/IC50 drug), Leishmania amazonensis” value stood at 1.61 and inhibition was half-maximal at 72 ± 50 µM (IC50). In addition, the CC50 at 24 h in data set [3] is 116 µM.

Turning to `Cc1nn(-c2ccc(S(=O)(=O)Nc3ccc(Br)cc3)cc2)c(Cl)c1Br` [Compound 3d, 4-(4-Bromo-5-chloro-3-methyl-1H-pyrazol-1-yl)-N-(4-bromophenyl)benzenesulfonamide], in data set [1], the “S.I (selectivity index: CC50 drug/IC50 drug), Leishmania infantum” value stood at 0.49 and the IC50 stood at 99 ± 80 µM. Besides, in data set [2], the “S.I (selectivity index: CC50 drug/IC50 drug), Leishmania amazonensis” value was determined as 0.65 and the IC50 is 75 ± 10 µM.

Consider `N=C(N)c1ccc(OCCCCCOc2ccc(C(=N)N)cc2)cc1` [Pentamidine, reference compound], for which the IC50 in data set [1] amounted to 62 µM; in data set [2] it was 21 µM. Moreover, it took 54 µM to reach half-maximal cytotoxicity in data set [3] (CC50 at 24 h).

On to `Cc1nn(-c2ccc(S(N)(=O)=O)cc2)c(Cl)c1Br` [Compound 3a, 4-(4-Bromo-5-chloro-3-methyl-1H-pyrazol-1-yl)benzenesulfonamide], for which, in data set [1], the “S.I (selectivity index: CC50 drug/IC50 drug), Leishmania infantum” value is listed as 0.78 and the IC50 came to 228 ± 190 µM. In data set [2], the “S.I (selectivity index: CC50 drug/IC50 drug), Leishmania amazonensis” value came to 0.78 and the IC50 turned out to be 228 ± 330 µM.

As to `Cc1ccc(NS(=O)(=O)c2ccc(-n3nc(C)c(Br)c3Cl)cc2)cc1` [Compound 3c, 4-(4-Bromo-5-chloro-3-methyl-1H-pyrazol-1-yl)-N-(4methylphenyl)benzenesulfonamide], in data set [1], the “S.I (selectivity index: CC50 drug/IC50 drug), Leishmania infantum” value was 1.33 and the IC50 amounted to 123 ± 50 µM. In addition, in data set [2], the “S.I (selectivity index: CC50 drug/IC50 drug), Leishmania amazonensis” value is recorded as 0.51 and half-maximal inhibition (IC50) required 318 ± 590 µM.

With `Cc1nn(-c2ccc(S(=O)(=O)Nc3ccccc3)cc2)c(Cl)c1Br` [Compound 3b, 4-(4-Bromo-5-chloro-3-methyl-1H-pyrazol-1-yl)-N-phenylbenzenesulfonamide], in data set [1], the “S.I (selectivity index: CC50 drug/IC50 drug), Leishmania infantum” value was 2.44 and the IC50 was 59 ± 10 µM. In data set [2], the “S.I (selectivity index: CC50 drug/IC50 drug), Leishmania amazonensis” value was 2.05 and half-maximal inhibition (IC50) was put at 70 ± 20 µM. In addition, the CC50 at 24 h in data set [3] turned out to be 144 µM.
